Test results from patent US5101054A, “Novel fluorine-containing platinum complex” (priority 1989, dated 1992).
Like-named read-outs stand apart in the source and are kept apart here.

Key:
[1] = mouse, in vivo
Protocol: (§1) Test compounds were administered to ICR mice (aged: 8 weeks) on the 1st day, the 5th day and the 9th day. The blood was collected therefrom on the 12th day, and the concentrations of blood urea nitrogen (BUN) were determined.
(§2) *Control group: druguntreated normal mouse

[2] = test system: Mouse leukemia cells L1210; test: Experiment 1 anti-tumor activity test in L1210 implanted CDF1 mice; assay type: in vivo; details: for T/C: L1210 i.p. implanted CDF1 mice; for Number of survived mice (on 30th day): survivors/total on 30th day
Protocol: Mouse leukemia cells L1210 (1×10^5) were implanted intraperitoneally to CDF1 mice (female, aged: 8 weeks) on the 0 day of implantation. CDDP and CBDCA were used as a reference. The anti-tumor activity of the platinum complexes in L1210 implanted mice were expressed by the T/C value, which was determined according to the following equation, and by the number of mice which survived until the 30th day of implantation. [formula]

[3] = test system: cisplatin resistant mouse leukemia cells L1210 (L1210/CDDP); test: Experiment 2 growth inhibition of cisplatin resistant L1210/CDDP cells; assay type: cell-based
[4] = Experiment 3 blood urea nitrogen (BUN) and body weight in ICR mice; details: for Difference of weights: average weight 12th day vs 1st day; for BUN value: blood on 12th day, control 27.2 ± 1.9
Protocol: as §1, §2

[5] = test system: L1210 cells; test: Experiment 2 growth inhibition of L1210 cells; assay type: cell-based, mouse; details: text calls it IC50
Protocol: The drug sensitivity (a) was determined according to the following equation. [formula]

Compound | T/C ([2]; dose 12.5 mg/kg) [%] | Number of survived mice (on 30th day) ([2]; dose 12.5 mg/kg) | T/C ([2]; dose 25 mg/kg) [%] | Number of survived mice (on 30th day) ([2]; dose 25 mg/kg) | T/C ([2]; dose 50 mg/kg) [%] | Number of survived mice (on 30th day) ([2]; dose 50 mg/kg) | IC50 L1210/CDDP [3] [µg/mL] | T/C ([2]; dose 100 mg/kg) [%] | Number of survived mice (on 30th day) ([2]; dose 100 mg/kg) | other results
cis-dichloro-(2-methyl-2-trifluoromethyl-1,3-propanediamine)platinum (II) [Compound of Ex. 1] | > 304 | 3/6 | 375 | 6/6 | 273 | 0/6 | 0.10 | – | – | BUN value ([1]; 25 mg/kg): 23.3 mg/dL; Difference of weights ([1]; 25 mg/kg): -2.3 g; BUN value ([1]; 50 mg/kg): 17.8 mg/dL; Difference of weights ([1]; 50 mg/kg): -5.4 g
N.N.[Cl][Pt][Cl] [CDDP, cis-dichlorodiamine platinum (II)] | 282 | 1/6 | 367 | 4/6 | – | – | 0.50 | – | – | Difference of weights ([4]; dose 18 mg/kg on days 1, 5, 9): -4.8 g; BUN value ([4]; dose 18 mg/kg on days 1, 5, 9): 83.7 mg/dL; Difference of weights ([4]; dose 25 mg/kg on days 1, 5, 9): -8.9 g; BUN value ([4]; dose 25 mg/kg on days 1, 5, 9): 112.3 ± 16.6 mg/dL; T/C ([2]; dose 6.25 mg/kg): 227%; Number of survived mice (on 30th day) ([2]; dose 6.25 mg/kg): 0/6
N.N.O=C([O-])C1(C(=O)[O-])CCC1.[Pt+2] [CBDCA, cisdiamino-1,1-cyclobutanedicarboxylato platinum (II)] | 139 | 0/6 | 199 | 0/6 | 340 | 2/6 | 1.82 | 366 | 2/6 | Difference of weights ([4]; dose 100 mg/kg on days 1, 5, 9): -3.0 g; BUN value ([4]; dose 100 mg/kg on days 1, 5, 9): 21.0 ± 4.0 mg/dL; IC50 [5]: 0.25 µg/mL
CC(CN)(CN)C(F)(F)F.O=C([O-])C1(C(=O)[O-])CCC1.[Pt+2] [Compound of Ex. 2, cis-(2-methyl-2-trifluoromethyl-1,3-propanediamine)-1,1-cyclobutanedicarboxylato platinum (II)] | – | – | – | – | 192 | 0/6 | – | 267 | 0/6 | –
